Assay results from patent publication US10323000B2, “Indole derivatives and their use in neurodegenerative diseases” (priority 2014, dated 2019).
Read-outs that look alike come from different tables or passages of the source.

Tests used:
[1] = target: P2X7 (IL-1β release from THP-1 cells) (Homo sapiens (Human), UniProt Q99572); assay: IL-1β release assay; type: cell-based
Protocol: IL-1β release assay: The activation of P2X7 by ATP leads to a fast transient activation of cells resulting in influx of Ca^2+ followed by conversion of pro-IL-1β to active IL-1β. The functional activity of P2X7 compounds was measured by the release of mature […] in the culture medium of THP-1 cells, detected by sandwich ELISA. […] THP-1 cells were harvested from the flask in 50 ml by centrifugation for 3 min at 100 g. The cells were resuspended to 2×10^5 cells/ml in medium supplemented with 0.5 μM PMA and incubated. The cells were washed and resuspended to 1.5×10^5 cells/ml in medium complemented with 10 ng/ml LPS, and the cells were primed for 4 h at 37° C., 5% CO2. After addition of 20 μL of prediluted test compounds, blank, standard and control reagents, cells were incubated for a further 20 min at 37° C. and stimulated with 0.8 mM BzATP for 30 minutes. The cells were centrifuged, supernatant was collected and the presence of mature IL-1β was detected using Dual human IL-1b kit following manufacturer's instruction. The tetrahydrobenzodiazepine analogs effectively modulated the activity of P2X7 in the cells as measured by the levels of pro-inflammatory cytokine IL-1β, which is released by the activation of P2X7 receptor.

human P2X7 receptor = human P2X7 receptor (Homo sapiens (Human), UniProt Q99572); assay: Pore permeation assay (YO PRO dye uptake); type: cell-based
[2] = THP-1 cells, LPS primed, 0.8 mM BzATP, mature IL-1β by sandwich ELISA, read-out: hTHP-1/IL-ib IC50
[3] = HEK293 transfected with human P2X7, BzATP 10 uM, YO PRO dye uptake, read-out: hP2X7 IC50

P2X7 (IL-1β release from THP-1 cells), sequence (Q99572 whole entry): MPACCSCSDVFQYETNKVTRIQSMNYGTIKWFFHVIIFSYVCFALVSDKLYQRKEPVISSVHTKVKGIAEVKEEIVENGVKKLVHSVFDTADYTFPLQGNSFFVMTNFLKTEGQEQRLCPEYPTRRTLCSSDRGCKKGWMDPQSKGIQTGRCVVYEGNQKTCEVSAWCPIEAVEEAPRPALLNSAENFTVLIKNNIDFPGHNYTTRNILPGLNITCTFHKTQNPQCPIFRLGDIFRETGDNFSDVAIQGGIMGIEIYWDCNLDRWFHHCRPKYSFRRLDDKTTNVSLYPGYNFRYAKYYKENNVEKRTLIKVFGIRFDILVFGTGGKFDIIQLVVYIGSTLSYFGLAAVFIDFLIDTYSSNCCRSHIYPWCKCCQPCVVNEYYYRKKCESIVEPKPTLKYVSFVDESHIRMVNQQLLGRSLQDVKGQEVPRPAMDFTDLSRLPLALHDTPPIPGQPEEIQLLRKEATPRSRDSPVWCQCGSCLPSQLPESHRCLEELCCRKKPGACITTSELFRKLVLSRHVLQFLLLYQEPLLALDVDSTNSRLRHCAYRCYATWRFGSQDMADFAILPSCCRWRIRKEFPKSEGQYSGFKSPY
human P2X7 receptor, sequence (Q99572 whole entry): as above

SMILES	IC50 [1, 2]	IC50 (human P2X7 receptor)	IC50 [1]	IC50 (human P2X7 receptor; [3])
O=C(NC[C@@H]1CCCC[C@H]1O)c1cn(C2COC2)c2cccc(Cl)c12 [Compound 87]	> 1000 nM	101 to 500 nM		
O=C(NC[C@H]1CCCC[C@H]1O)c1cn(C2COC2)c2cccc(Cl)c12 [Compound 88, cis-4-Chloro-1-oxetan-3-yl-1H-indole-3-carboxylic acid ((1R,2R)-2-hydroxy-cyclohexylmethyl)-amide]	> 1000 nM	101 to 500 nM		
CC1CC(F)(F)CC(O)(CNC(=O)c2cn(C3COC3)c3cccc(Cl)c23)C1 (centres unmarked) [Compound 89, 4-chloro-N-((3,3-difluoro-1-hydroxy-5-methylcyclohexyl)methyl)-1-(oxetan-3-yl)-1H-indole-3-carboxamide]		101 to 500 nM	500 to 999 nM	
C[C@H]1CCC[C@@](O)(CNC(=O)c2cn(C3COC3)c3cccc(Cl)c23)C1 [Compound 90, 4-chloro-N-(((1S,3S)-1-hydroxy-3-methylcyclohexyl)methyl)-1-(oxetan-3-yl)-1H-indole-3-carboxamide]			10 to 100 nM	< 10 nM
O=C(NCC1CC(C(F)(F)F)CC(F)(F)C1)c1cn(C2COC2)c2cccc(Cl)c12 (centres unmarked) [Compound 91, 4-chloro-N-((3,3-difluoro-5-(trifluoromethyl)cyclohexyl)methyl)-1-(oxetan-3-yl)-1H-indole-3-carboxamide]		10 to 100 nM	101 to 500 nM	
O=C(NCC1(O)CCC(F)(F)CC1)c1cn(C2COC2)c2cccc(Cl)c12 [Compound 92, 4-chloro-N-((4,4-difluoro-1-hydroxycyclohexyl)methyl)-1-(oxetan-3-yl)-1H-indole-3-carboxamide]		10 to 100 nM	101 to 500 nM	
C[C@@H]1CCC[C@](O)(CNC(=O)c2cn(C3COC3)c3cccc(Cl)c23)C1 [Compound 93, 4-chloro-N-(((1R,3R)-1-hydroxy-3-methylcyclohexyl)methyl)-1-(oxetan-3-yl)-1H-indole-3-carboxamide]			10 to 100 nM	< 10 nM
O=C(NCC1CCC(F)(F)CC1)c1cn(C2COC2)c2cccc(Cl)c12 [Compound 94, 4-chloro-N-((4,4-difluorocyclohexyl)methyl)-1-(oxetan-3-yl)-1H-indole-3-carboxamide]		10 to 100 nM	10 to 100 nM	
O=C(NCC1CCC(F)(F)CC1)c1cn(CCOC(F)F)c2cccc(Cl)c12 [Compound 95, 4-chloro-N-((4,4-difluorocyclohexyl)methyl)-1-(2-(difluoromethoxy)ethyl)-1H-indole-3-carboxamide]		10 to 100 nM	101 to 500 nM	
O=C(NCC1(O)CCC(F)(F)CC1)c1cn(C2CCCO2)c2cccc(Cl)c12 (centres unmarked) [Compound 98, 4-chloro-N-((4,4-difluoro-1-hydroxycyclohexyl)methyl)-1-(tetrahydrofuran-2-yl)-1H-indole-3-carboxamide]		101 to 500 nM	101 to 500 nM	
O=C(NCC1(O)CCCC(C(F)(F)F)C1)c1cn(C2CCOC2)c2cccc(Cl)c12 (centres unmarked) [Compound 100, 4-chloro-N-((1-hydroxy-3-(trifluoromethyl)cyclohexyl)methyl)-1-(tetrahydrofuran-3-yl)-1H-indole-3-carboxamide]	> 1000 nM			> 1000 nM
O=C(NCC1CCCCC1)c1cn(C2CCOC2)c2cccc(Cl)c12 (centres unmarked) [Compound 101, 4-chloro-N-(cyclohexylmethyl)-1-(tetrahydrofuran-3-yl)-1H-indole-3-carboxamide]		101 to 500 nM	500 to 999 nM	
O=C(NCC1C[C@@H]2CC[C@H]1C2)c1cn(C2CCOC2)c2cccc(Cl)c12 (stereo partly drawn) [Compound 105, 4-Chloro-1-(tetrahydro-furan-3-yl)-1H-indole-3-carboxylic acid ((1S,4R)-1-bicyclo[2.2.1]hept-2-ylmethyl)-amide]		10 to 100 nM	101 to 500 nM	
CC1CC(O)(CNC(=O)c2cn(C3CCOC3)c3cccc(Cl)c23)CCC1(F)F (centres unmarked) [Compound 106, 4-Chloro-1-(tetrahydro-furan-3-yl)-1H-indole-3-carboxylic acid (4,4-difluoro-1-hydroxy-3-methyl-cyclohexylmethyl)-amide]		500 to 999 nM	101 to 500 nM	
CC1(C)CCCC(O)(CNC(=O)c2cn(C3CCOC3)c3cccc(Cl)c23)C1 (centres unmarked) [Compound 107, 4-Chloro-1-(tetrahydro-furan-3-yl)-1H-indole-3-carboxylic acid (1-hydroxy-3,3-dimethyl-cyclohexylmethyl)-amide]		10 to 100 nM	101 to 500 nM	
O=C(NCCC1CCCC1)c1cn(C2CCOC2)c2cccc(Cl)c12 (centres unmarked) [Compound 108, 4-Chloro-1-(tetrahydro-furan-3-yl)-1H-indole-3-carboxylic acid (2-cyclopentyl-ethyl)-amide]		10 to 100 nM	101 to 500 nM	
